According to patent US8263576B2, “Non-natural sphingolipid analogs and uses thereof” (Mayo Foundation for Medical Education and Research, priority 2006, dated 2012):

Assays:
[1] = system: clathrin-dependent endocytosis; conditions: Singh et al., J. Biol. Chem. 2006; cited from earlier work
rat fibroblasts = experiment: Inhibition of lipid analog endocytosis by biochemical treatments in rat fibroblasts; assay type: cell-based
Excerpt: To define the molecular features of GSL analogs and their ability to selectively internalize by caveolar endocytosis, the structure of the natural D-erythro-LacCer compound was modified (Singh, R. D., et al. Mol. Biol. Cell, 2003, 14, 3254). The modifications included those to the structure of the fluorescent lipid through variations to its carbohydrate headgroup, chain length of the sphingosine base, or chain length of the fluorescent fatty acid (see FIG. 6). Tests were designed to test initial internalization and sensitivity to inhibitor treatments.
To investigate the structural determinants of GSLs that result in selective internalization via caveolae, the structure of the fluorescent GSL analogs were systematically varied (see FIG. 6) and examined to determine the effect of these variations on the mechanism of analog internalization. To examine the significance of the carbohydrate head group, the fluorescent analogs of GalCer, globoside, GM1, LacCer, MalCer, and sulfatide were used. For each of these fluorescent GSL analogs, the fluorescent fatty acid and sphingosine base were identical (n′=3, n=7; FIG. 6A). Rat fibroblasts (RFs) were incubated with each analog in the presence or absence of various inhibitors to differentiate clathrin-dependent from clathrin-independent endocytosis, and the amount of internalization (at 5 min) was quantified by image analysis.
A control experiment was carried out exactly as above, except that BODIPY-LacCer was introduced into cells from an ethanolic solution rather than from a BSA complex.
Furthermore, the importance of hydrophobicity on the mechanism of GSL endocytosis was examined. For these studies, the BODIPY-LacCer analogs that were used varied the chain length of the sphingosine base (C12 to C20), or fatty acid (C3 vs. C5 spacer) (n=1, 5, 7, or 9; n′=1 or 3; FIG. 6A).
Finally, a comparison between NBD-LacCer and NBD-D-PC (see FIG. 6B)was made to study the possible influence of the lipid backbone (ceramide vs. glycerol) on the internalization mechanism.

human eosinophils [2] = experiment: Eosinophil adhesion to tissue culture wells; assay type: cell-based
human eosinophils [3] = experiment: Eosinophil superoxide generation (cytochrome c reduction); assay type: cell-based; conditions: versus medium alone, 37° C., up to 4 h
Procedure: Human eosinophils were purified from normal individuals or patients with mild allergy by Percoll density gradient centrifugation and magnetic cell sorting using MACS anti-CD16 microbeads as described by Hansel T. T., et al., J. Immunol. Methods 1991, 145, 105. Briefly, after peripheral blood was overlaid on an isotonic Percoll solution (1.084 g.ml, Sigma), the blood was centrifuges at 1000×g for 30 min at 4° C. Mononuclear cells at the interface were removed, and erythrocytes in sediment were lysed by two cycles of hypotonic water lysis. […] The purity of eosinophils counted by Randolph's stain was >98%. […]
Superoxide anion generation and degranulation by human eosinophils were used as readouts of eosinophils functions in response to proteases or synthetic PAR activating peptides. Generation of superoxide by eosinophils was measured by superoxide dismutase-inhibitable reduction of cytochrome c as previously described with slight modifications. […] Immediately after addition of stimuli, the reaction wells were measured for absorbance at 550 nm in a microplate autoreader (Thermomax, Molecular Devices, Menlo Park, Calif.), followed by repeated readings. Between absorbance measurements, the plate was incubated at 37° C. […] To quantitate eosinophils degranulation, the concentrations of eosinphil-derived neutrotoxin (EDN) in the sample supernatants were measure by specific RIA.

[4] = system: caveolar endocytosis in HSFs; experiment: Uptake of endocytic markers in human skin fibroblasts (fluorescence microscopy); assay type: cell-based; conditions: HSFs treated 30 min at 10° C. with lipid, pulse labeled, 5 min at 37° C.
Procedure: HSFs were either untreated (Control) or treated for 30 min at 10° C. with D-erythro or L-threo-C8-LacCer, and then pulse labeled with fluorescent albumin or β1-integrin Fab (caveolar markers), Tfn (clathrin marker), dextran (fluid phase marker), or anti-IL2R Fab (for RhoA pathway). After 5 min at 37° C., cells were acid-stripped to remove non-internalized marker and images were acquired by fluorescence microscopy (A) and quantified (B). At least 20 cells for each condition were analyzed in multiple experiments. Bar, 10 μm.
The non-natural (L-threo; LT) isomers of C8-LacCer and BODIPY-LacCer were synthesized. The latter was synthesized by the method detailed in Liu, Y., et al. Chem. Phys. Lipids, 2006, 142, 58 (referred to as Liu). C8-LT-LacCer was prepared through a modification of the methods used in Liu, where an activated for of octanoic acid was used in place of BODIPY-C5-NHS. HSFs were then either untreated (Control) or treated for 30 min at 10° C. with D-erythro (DE) or L-threo (LT) C8-LacCer, and then pulse labeled with fluorescent albumin or anti-β1-integrin Fab (caveolar markers), Tfn (clathrin marker), dextran (fluid phase marker), or anti-IL2R Fab (for RhoA pathway). After 5 min at 37° C., cells were acid-stripped to remove non-internalized marker and images were acquired by fluorescence microscopy (A) and quantified (B). At least 20 cells for each condition were analyzed in multiple experiments. Bar, 10 μm.

β1-integrin = target: T1, β1-integrin (Homo sapiens, UniProt P05556); experiment: β1-integrin activation in HSFs (HUTS-4 Ab binding); assay type: cell-based; conditions: for HUTS binding (β1-integrin activation), agent alone: HSFs, lipid in the absence of β1-stim Ab, or β1-stim Ab alone
T1 construct: endogenous in cells; host or cells: human skin fibroblasts (HSFs)
Procedure: FIG. 4a: HSFs were serum-starved for 2-3 hrs and then either untreated (panel 1, Control) or incubated with a stimulating β1-integrin IgG (panel 2; β1-stim) or with the LacCer isomers (panels 3 & 4) for 30 min at 10° C. All samples were then warmed for 30 sec at 37° C., fixed and stained with HUTS-4 Ab that recognizes β1-integrin in its active conformation. Note the absence of β1-integrin activation in cells pretreated with C8-LT-LacCer. Quantitation in FIG. 4b was by image analysis (n≧10 cells/condition; 3 independent experiments). Bars, 10 μm.
A further mechanistic possibility by which C8-LT-LacCer might inhibit caveolar internalization is by disruption transmembrane signaling events required for endocytosis. […] The first examination involved the activation of β1-integrin in HSFs following crosslinking with a stimulatory Ab (β1-stim Ab) using the HUTS-4 Ab which only binds to β1-integrins in their activated conformation (see, e.g., Luque, A. et al., J. Biol. Chem. 1996, 271, 11067).

SV40 virus [5] = experiment: SV40 infection of CV1 cells (large T antigen expression); assay type: cell-based, monkey; conditions: CV1 cells pretreated with lipid and SV40 at low temperature, then 37° C. for 14 hrs
[6] = system: PM domains enriched in GM1 ganglioside; experiment: PM microdomain clustering induced by CtxB and anti-CtxB Ab in HSFs; assay type: cell-based, human; conditions: HSFs pretreated with lipid 30 min at 10° C.
Excerpt: (§1) PM domains enriched in GM1 ganglioside (A,B) or cholesterol (C) were visualized using fluorescent CtxB or BC-⊖, respectively. Clustering of these probes was induced using an anti-CtxB Ab or SV40. Note the inhibition of microdomain clustering when cells were pretreated with C8-LT-LacCer, compared to untreated control samples. (A), HSFs; (B,C) CV1 cells. Bars, 10 μm.
A potential mechanism for C8-LT-LacCer inhibition of caveolar endocytosis, namely disruption of PM microdomain formation, was explored. This mechanistic possibility was tested through incubation of cells with AF594-CtxB at 10° C. to label […] at the PM, followed by an anti-Ctx-B IgG.

src kinase = experiment: src phosphorylation (Y416) immunoblot in HSFs; assay type: cell-based, human; conditions: for src activation (phosphorylation at Y416), lipid alone: 30 min at 10° C., then 30 sec at 37° C.; for src phosphorylation induced by β1-stim Ab: cells pretreated with lipid, data not shown
Procedure: HSFs were treated with C8-DE-LacCer (±PP2), C8-LT-LacCer, PDGF, or with β1 stim Ab±LacCer isomers. Samples were warmed for 30 sec at 37° C., lysed, and the cell lysates blotted for src and phosphor-Src (Y416).
Cells were incubated for 30 min at 10° C.± the LacCer stereoisomers and/or the β1-stim Ab followed by a 30 sec incubation at 37° C. Cell lysates were then immunoblotted for src and phospho-(Y416) src.

[7] = system: PM domains enriched in GM1 ganglioside; conditions: Singh et al., 2006, submitted; cited from earlier work
SV40 virus [8] = experiment: SV40 binding to CV1 cells (anti-SV40 VP1 MAb); conditions: lipid and SV40 at low temperature
Procedure: (A, B) CV1 cells were incubated LacCer stereoisomers for 30 min at 10° C., and then coincubated for 1 hr at 10° C. with SV40 virus (MOI=15). Samples were washed, incubated for 40 hrs in complete medium, fixed, permeabilized, and stained for the Large T antigen. Values in (B) are mean ±SD (n≧50 cells/condition; three independent experiments). (C, D) CVI cells were treated with SV40 for 1 hr as in (A,B) and SV40 binding to live cells was detected using anti-SV40 VP1 MAb. Values in D are mean ±SD (n≧20 cells from two independent experiments).
Cells were treated with the C8-LT-LacCer isomer and SV40 at low temperature, washed, and then incubated with a monoclonal antibody to the SV40 major capsid protein VP1.

[9] = system: PM domains enriched in GM1 ganglioside and cholesterol; experiment: SV40-induced PM domain formation in CV1 cells; assay type: cell-based, monkey; conditions: CV1 cells pretreated with lipid, low temperature
Excerpt: as §1

[10] = system: clathrin-dependent endocytosis; experiment: Internalization route of BODIPY-LacCer stereoisomers; assay type: cell-based; conditions: data not shown

T1 sequence (P05556 21-798): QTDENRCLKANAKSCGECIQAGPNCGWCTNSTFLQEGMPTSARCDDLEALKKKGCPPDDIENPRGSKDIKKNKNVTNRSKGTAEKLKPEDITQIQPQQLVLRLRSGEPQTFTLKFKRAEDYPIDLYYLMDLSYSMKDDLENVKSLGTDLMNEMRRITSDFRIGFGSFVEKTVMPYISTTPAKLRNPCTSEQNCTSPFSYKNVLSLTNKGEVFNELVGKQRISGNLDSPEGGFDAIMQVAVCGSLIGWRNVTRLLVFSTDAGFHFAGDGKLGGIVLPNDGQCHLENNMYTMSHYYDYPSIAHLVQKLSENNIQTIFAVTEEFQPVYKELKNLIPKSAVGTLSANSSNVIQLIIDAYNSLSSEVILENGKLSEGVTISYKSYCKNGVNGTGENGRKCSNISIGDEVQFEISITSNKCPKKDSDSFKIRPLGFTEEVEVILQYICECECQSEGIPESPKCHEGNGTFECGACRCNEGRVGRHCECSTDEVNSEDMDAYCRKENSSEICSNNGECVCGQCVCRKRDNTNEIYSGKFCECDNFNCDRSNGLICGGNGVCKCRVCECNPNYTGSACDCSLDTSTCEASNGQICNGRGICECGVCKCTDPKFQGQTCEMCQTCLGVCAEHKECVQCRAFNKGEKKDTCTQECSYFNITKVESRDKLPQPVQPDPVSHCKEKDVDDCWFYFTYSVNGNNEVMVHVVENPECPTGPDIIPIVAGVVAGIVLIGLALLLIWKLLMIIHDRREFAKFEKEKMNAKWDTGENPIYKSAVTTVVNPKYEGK

## CCCCCCCCCCCCC/C=C/[C@@H](O)[C@H](CO[C@@H]1O[C@H](CO)[C@@H](O[C@@H]2O[C@H](CO)[C@H](O)[C@H](O)[C@H]2O)[C@H](O)[C@H]1O)NC(=O)CCCCc1ccc2n1[B-](F)(F)[N+]1=C(C)C=C(C)C1=C2 [BODIPY-LacCer]
[1]
  internalization route: internalized via caveolae
Rat fibroblasts
  sensitivity of internalization to chlorpromazine (CPZ): not by chlorpromazine
  sensitivity of internalization to nystatin: substantially inhibited
Rat fibroblasts; ethanolic solution
  inhibition of endocytosis when delivered by ethanol injection vs. BSA complex: virtually identical results
Rat fibroblasts; internalization at 5 min
  Inhibition of lipid analog endocytosis, Clathrin-dependent internalization, Chloropromazine: 9.3 ± 1.7%
  Inhibition of lipid analog endocytosis, Clathrin-dependent internalization, K+-depletion: 10.4 ± 1.3%
  Inhibition of lipid analog endocytosis, Clathrin-independent internalization, Genistein: 73.9 ± 4.1%
  Inhibition of lipid analog endocytosis, Clathrin-independent internalization, Nystatin: 75.1 ± 6.8%

## CCCCCCCCCCCCC/C=C/[C@@H](O)[C@H](CO[C@@H]1O[C@H](CO)[C@@H](O[C@@H]2O[C@H](CO)[C@H](O)[C@H](O)[C@H]2O)[C@H](O)[C@H]1O)NC(=O)CCCCCCC [C8-DE-LacCer]
Human eosinophils [2]
  adhesion of eosinophils: induces adhesion of eosinophils to tissue culture wells
Human eosinophils [3]
  superoxide production by eosinophils: A large quantity of superoxide was produced
[4]
  uptake of caveolar markers (fluorescent albumin, β1-integrin Fab): stimulated caveolar uptake
β1-integrin
  HUTS binding (β1-integrin activation), agent alone: activated β1-integrin
SV40 virus [5]
  SV40 infection monitored by expression of the large T antigen: no effect
[6]
  clustering of PM domains induced by labeled CtxB and crosslinking Ab: No inhibition of domain formation was observed
Src kinase
  src activation (phosphorylation at Y416), lipid alone: activated (phosphorylated at Y416)
  src phosphorylation induced by β1-stim Ab: did not significantly affect src phosphorylation
[7]
  formation of PM domains in the absence of a crosslinking Ab: induced the formation of large domains enriched in GM1 ganglioside and cholesterol

## CCCCCCCCCCCCC/C=C/[C@H](O)[C@H](CO[C@@H]1O[C@H](CO)[C@@H](O[C@@H]2O[C@H](CO)[C@H](O)[C@H](O)[C@H]2O)[C@H](O)[C@H]1O)NC(=O)CCCCCCC [C8-LT-LacCer, β-D-lactosyl-N-octanoyl-L-threo-sphingosine]
SV40 virus [8]
  inhibition of SV40 binding to CV1 cells: about 80%
[4]
  uptake of caveolar markers (fluorescent albumin, β1-integrin Fab): inhibited uptake of multiple caveolar markers
[4]; listed as LT-isomer of C8-LacCer
  uptake of caveolar markers (fluorescent albumin, β1-integrin Fab): selectively inhibiting caveolar endocytosis
β1-integrin; HSFs pretreated with lipid prior to β1-stim Ab
  HUTS binding (β1-integrin activation) induced by β1-stim Ab: reduced HUTS binding to levels seen in untreated control cells
β1-integrin
  HUTS binding (β1-integrin activation), agent alone: no increase in HUTS binding was seen
[9]
  SV40 induction of PM domains: prevented the SV40 induction of these PM domains
SV40 virus [5]
  SV40 infection monitored by expression of the large T antigen: dramatically reduced
[6]
  clustering of PM domains induced by labeled CtxB and crosslinking Ab: no clustering of PM domains was observed
Src kinase
  src activation (phosphorylation at Y416), lipid alone: little or no src activation
  src phosphorylation induced by β1-stim Ab: inhibited src phosphorylation

## CC(C)(C)n1nc(-c2ccc(Cl)cc2)c2c(N)ncnc21 [PP2]
Src kinase; with src inhibitor
  src activation induced by C8-DE-LacCer: blocked

## C5-BODIPY-L-threo-lactosylceramide [BODIPY-LT-LacCer]
[10]
  fraction internalized by clathrin-dependent endocytosis: 65-70%
